Results reported in the RepoRT retention time repository (doi:10.1016/j.chroma.2015.11.014).

Assay: RP, Agilent ZORBAX Eclipse Plus C18, 150 × 2.1 mm, 3.5 µm, 40 °C, 0.3 mL/min, estimated dead time 1.1 min; A: water + 0.1% formic acid; B: acetonitrile + 0.1% formic acid; gradient (min/%B) 0/2 1/2 2/20 16.5/98 22/98
Details: stereoisomer not certain

SMILES	LC retention time
NCC1(CC(=O)O)CCCCC1	4.88 min
CC12C=CC(=O)C=C1CCC1C2C(O)CC2(C)C1CCC2(O)C(=O)CO (stereo not given)	8.43 min
CCCOP(=O)(OCCC)OCCC	10.9 min
CNC(=O)N(C)c1nc2ccccc2s1	9.78 min
CCCCCC[N+](CCCCCC)(CCCCCC)CCCCCC	13.1 min
CCCC[N+](CCCC)(CCCC)CCCC	8.91 min
CCC1(c2cccc(O)c2)CCCCN(C)C1 (stereo not given)	5.64 min
CC(C)c1ccc(NC(=O)N(C)C)cc1	10.3 min
CNC(=O)ON=C(C)C(C)SC (stereo not given)	7.75 min
CNC(=O)Oc1ccccc1OC(C)C	9.47 min
CCCC[P+](CCCC)(CCCC)CCCC	9.65 min
Cc1ccc(OP(=O)(Oc2ccc(C)cc2)Oc2ccc(C)cc2)cc1	15.9 min
O=P(Oc1ccccc1)(Oc1ccccc1)Oc1cccc(OP(=O)(Oc2ccccc2)Oc2ccccc2)c1	15.9 min
CCC1(C2OC(C3OC(O)(CO)C(C)CC3C)CC2C)CCC(C2(C)CCC3(CC(O)C(C)C(C(C)C(OC)C(C)C(=O)O)O3)O2)O1 (stereo not given)	20.4 min
C[N+](C)(C)Cc1ccccc1	4.46 min
CCCCCCCCCCCCCCCC(=O)OCC(O)COP(=O)([O-])OCC[N+](C)(C)C (stereo not given)	14.9 min
CCNC(=O)C1CC(C)CCC1C(C)C (stereo not given)	11.8 min
CC12CCC3c4ccc(O)cc4CCC3C1CCC2O (stereo not given)	10.4 min
NCCc1c[nH]c2ccccc12	4.97 min
Nc1ccn(C2CSC(C(=O)O)O2)c(=O)n1 (stereo not given)	2.46 min
CCC1OC(=O)C(C)C(OC2CC(C)(OC)C(O)C(C)O2)C(C)C(OC2OC(C)CC(N(C)C)C2O)C(C)(O)CC(C)C(=O)C(C)C(O)C1(C)O (stereo not given)	7.85 min
CSc1nc(NC(C)C)nc(NC(C)C)n1	9.53 min
CN1C(=O)NC(=O)C1(C)C	5.06 min
CC(C)(C)c1cc([N+](=O)[O-])cc([N+](=O)[O-])c1O	13.9 min
CNC(=O)Oc1cccc2c1OC(C)(C)C2	9.75 min

SMILES	LC retention time
CN1C2CCC1C(C(=O)O)C(OC(=O)c1ccccc1)C2 (stereo not given)	5.64 min
CCOCCOC(=O)Nc1ccc(C)c(NC(=O)OCCOCC)c1	9.91 min
O=[P+](c1ccccc1)c1ccccc1	8.03 min
COc1ccc2c3c1OC1C(OC(C)=O)C=CC4C(C2)N(C)CCC341 (stereo not given)	6.21 min
CC(C)(C)NCC(O)COc1nsnc1N1CCOCC1 (stereo not given)	5.51 min
CCCCCCCCCCCCCCN(C)C	11.4 min
Cc1cn(C2CC(N=[N+]=[N-])C(CO)O2)c(=O)[nH]c1=O (stereo not given)	5.9 min
CCCCC[N+](CCCC)(CCCC)CCCC	9.57 min
CCCCCCCCCCCC[N+](C)(C)C	10 min
CCCCCCCCCCCCCCCCN1C=CC=CC1	13 min
CCCCCCCCCCCCCCCCCCCC[N+](C)(C)C	15.7 min
CCCC[N+]1(C)CCCCC1	4.66 min
CCCCOP(=O)(O)OCCCC	8.01 min
CC12CCC(=O)C=C1CCC1C2C(O)CC2(C)C1CCC2(O)C(=O)CO (stereo not given)	8.32 min
CCN1C=CN(C)C1	1.34 min
OC(c1ccccc1)(c1ccccc1)C1CCNCC1	6.64 min
COc1cc(C(=O)O)cc(OC)c1OC	7.63 min
CSc1nc(NC2CC2)nc(NC(C)(C)C)n1	10.2 min
CC(C)CC(CN)CC(=O)O (stereo not given)	5.17 min
CCCCCCN1C=CN(C)C1	5.73 min
CCNc1nc(NC(C)(C)C)nc(SC)n1	9.67 min
CCCCCCCCCCCCOS(=O)(=O)O	14.9 min
CCCCOCCOP(=O)(OCCOCCCC)OCCOCCCC	14.6 min
CC(C)(C)[P+](=O)C(C)(C)C	7.1 min

Other lines, results leading:

LC retention time	SMILES
13.7 min	CCSc1nc2ccccc2s1
8.34 min	c1ccc([P+](Cc2ccccn2)(c2ccccc2)c2ccccc2)cc1
8.6 min	COC(=O)C1C2CC3c4[nH]c5cc(OC)ccc5c4CCN3CC2CC(OC(=O)c2cc(OC)c(OC)c(OC)c2)C1OC (stereo not given)
3.47 min	O=P(O)(O)Oc1ccccc1
11.1 min	CC12CCC3c4ccc(OS(=O)(=O)O)cc4CCC3C1CCC2=O (stereo not given)
8.67 min	COCP(=O)(c1ccccc1)c1ccccc1
4.78 min	Cc1c(N)c(=O)n(-c2ccccc2)n1C
7.06 min	CC(C)NCC(O)COc1ccc(CCOCC2CC2)cc1 (stereo not given)
5.02 min	COc1cc(Cc2cnc(N)nc2N)cc(O)c1OC
8.03 min	O=C(O)c1ccc(-c2ccccc2-c2nn[nH]n2)cc1
17.6 min	C=C(c1ccc(C(=O)O)cc1)c1cc2c(cc1C)C(C)(C)CCC2(C)C
9.45 min	CCOc1ccc(C[P+](c2ccccc2)(c2ccccc2)c2ccccc2)cc1
7.56 min	O=C(O)c1ccccc1
9.18 min	O=C1CC(c2ccc(O)cc2)Oc2cc(O)cc(O)c21 (stereo not given)
11.6 min	CCCCCCCCCCCC[N+](C)(C)Cc1ccccc1
4.66 min	O=C(O)c1c2ccccc2nc2ccccc12
6.77 min	Cc1cc(NS(=O)(=O)c2ccc(NO)cc2)no1
8.85 min	CCCC[P+](c1ccccc1)(c1ccccc1)c1ccccc1
11.2 min	CCCCCCCCCCC(C(=O)OC)[N+](C)(C)Cc1ccccc1 (stereo not given)
11.8 min	COc1ccc(C(=O)c2ccccc2O)c(O)c1
7.56 min	Cc1noc(NS(=O)(=O)c2ccc(N)cc2)c1C
4.79 min	CSCC1OC(n2cnc3c(N)ncnc32)C(O)C1O (stereo not given)
8.55 min	CCCSc1ccc2nc(NC(=O)OC)[nH]c2c1
6.5 min	CC1c2cccc(O)c2C(O)=C2C(=O)C3(O)C(O)=C(C(N)=O)C(=O)C(N(C)C)C3C(O)C21 (stereo not given)

LC retention time	SMILES
8.87 min	CN(C)c1ccc(C=O)cc1
7.08 min	COc1ncnc(NS(=O)(=O)c2ccc(N)cc2)c1OC
12.3 min	c1ccc(P(=N[P+](c2ccccc2)(c2ccccc2)c2ccccc2)(c2ccccc2)c2ccccc2)cc1
13.5 min	COc1ccc(C(=O)c2ccccc2)c(O)c1
4.89 min	CC(C)NCC(O)COc1ccc(CC(=O)O)cc1 (stereo not given)
3.4 min	Nc1ncnc2c1ncn2C1CC(O)C(CO)O1 (stereo not given)
10.8 min	O=C(C1CCCCC1)N1CC(=O)N2CCc3ccccc3C2C1 (stereo not given)
9.23 min	NC(=O)N1c2ccccc2CCc2ccccc21
15.4 min	CCOc1ccccc1NC(=O)C(=O)Nc1ccccc1CC
6.22 min	COc1ccccc1-c1nc2ccccc2[nH]1
10.8 min	CCOCCOC(=O)Nc1ccc(C)cc1
8 min	CC(CN1c2ccccc2Sc2ccccc21)N(C)C (stereo not given)
9.03 min	COc1cccc(OC)c1OC
6.76 min	CC(O)C(=O)N(C)c1ccccc1 (stereo not given)
5.11 min	COc1cc(Cc2cnc(N)nc2N)cc(OC)c1OC
5.09 min	CC[N+](CC)(CC)Cc1ccccc1
6.83 min	Cc1c(O)c(=O)n(-c2ccccc2)n1C
13.9 min	CCCCCCCCCCCCCCCC[N+](C)(C)Cc1ccccc1
12.1 min	COc1ccccc1Oc1c(NS(=O)(=O)c2ccc(C(C)(C)C)cc2)nc(-c2ncccn2)nc1OCCO
4.96 min	CCN1CCCC1CNC(=O)c1cc(S(N)(=O)=O)ccc1OC (stereo not given)
4.5 min	Cn1c(=O)[nH]c(=O)c2[nH]cnc21
5.68 min	CC(=O)Nc1cccc(O)c1
6.53 min	CCN(CC)C(=O)Nc1ccc(OCC(O)CNC(C)(C)C)c(C(C)=O)c1 (stereo not given)
4.79 min	Nc1nc2ccccc2[nH]1

LC retention time	SMILES
8.82 min	CCP(=O)(c1ccccc1)c1ccccc1
7.1 min	OCC[P+](c1ccccc1)(c1ccccc1)c1ccccc1
8.71 min	c1ccc(C[P+](c2ccccc2)(c2ccccc2)c2ccccc2)cc1
10.7 min	CCOC(=O)c1ccc(O)c([N+](=O)[O-])c1
19 min	CCCCCCCCOc1ccc(C(=O)c2ccccc2)c(O)c1
8.83 min	CC(C)(C)OC(=O)C[P+](c1ccccc1)(c1ccccc1)c1ccccc1
6.44 min	CNCC(c1ccc(OC)cc1)C1(O)CCCCC1 (stereo not given)
5.35 min	C=CC[N+](CC)(CC)Cc1ccccc1
5.24 min	Nc1cccc2c1CN(C1CCC(=O)NC1=O)C2=O (stereo not given)
8.16 min	Nc1ccc2c(c1)C(=O)OC21c2ccc(O)cc2Oc2cc(O)ccc21
5.9 min	c1ccc(-c2nc3ccccc3[nH]2)cc1
6.13 min	C[N+](C)(Cc1ccccc1)Cc1ccccc1
4.94 min	Cn1c(=O)c2[nH]cnc2n(C)c1=O
4.35 min	c1ccc(C2=NCCN2)cc1
6.06 min	Cc1ccc(-c2nc3ccccc3[nH]2)cc1
8.71 min	CN(C)CCC=C1c2ccccc2CCc2ccccc21
5.75 min	COc1ccc2nc(SCc3ncc(C(=O)O)c(OC)c3C)[nH]c2c1
7.09 min	O=S(=O)(O)c1ccc2ccccc2c1
5.06 min	Cn1c(=O)[nH]c2ncn(C)c2c1=O
6.22 min	Oc1ccccc1-c1nc2ccccc2[nH]1
5.11 min	CC(C)NCC(O)COc1ccc(CCO)cc1 (stereo not given)
5.46 min	CN1CCN2c3ncccc3Cc3ccccc3C2C1 (stereo not given)
4.71 min	CC1(C)SC2C(NC(=O)C(N)c3ccc(O)cc3)C(=O)N2C1C(=O)O (stereo not given)
